# Test system: SARS-CoV-2 replicon
# Type: cell-based
# Settings: read-out: SARS-CoV-2 Replicon (Huh-7cell) EC50
row,Compound,EC50
1,"CCC(C)(C)COC(=O)[C@H](C)NP(=O)(OCOC(=O)OC(C)C)OC[C@H]1O[C@@](C#N)(c2ccc3c(N)ncnn23)[C@H](OC(=O)C(C)C)[C@@H]1OC(=O)C(C)C (mixture of isomers) [Compound 14, (2R,3R,4R,5R)-2-(4-aminopyrrolo[2,1-f][1,2,4]triazin-7-yl)-2-cyano-5-((((((S)-1-(2,2-dimethylbutoxy)-1-oxopropan-2-yl)amino)(((isopropoxycarbonyl)oxy)methoxy)phosphoryl)oxy)methyl)tetrahydrofuran-3,4-diyl bis(2-methylpropionate)]",10 to 50 nM
2,"CC(C)C(=O)O[C@H]1[C@@H](OC(=O)C(C)C)[C@](C#N)(c2ccc3c(N)ncnn23)O[C@@H]1COP(=O)(OCCSC(=O)C(C)(C)C)Oc1ccc(C(C)(C)C)cc1 (mixture of isomers) [Compound 27, (2R,3R,4R,5R)-2-(4-aminopyrrolo[2,1-f][1,2,4]triazin-7-yl)-5-((((4-tert-butylphenoxy)(2-(pivaloylthio)ethoxy)phosphoryl)oxy)methyl)-2-cyanotetrahydrofuran-3,4-diyl bis(2-methylpropionate)]",10 to 50 nM
3,"CCCCCCCCCCCCCCCCOCCCOP(=O)(OCOC(=O)OC(C)C)OC[C@H]1O[C@@](C#N)(c2ccc3c(N)ncnn23)[C@H](OC(=O)C(C)C)[C@@H]1OC(=O)C(C)C (mixture of isomers) [Compound 36, (2R,3R,4R,5R)-2-(4-aminopyrrolo[2,1-f][1,2,4]triazin-7-yl)-2-cyano-5-((((3-(hexadecyloxy)propoxy)(((isopropoxycarbonyl)oxy)methoxy)phosphoryl)oxy)methyl)tetr ahydrofuran-3,4-diyl bis(2-methylpropionate)]",50 to 500 nM
4,"CCC(=O)O[C@H]1[C@@H](OC(=O)CC)[C@](C#N)(c2ccc3c(N)ncnn23)O[C@@H]1CO[P@](=O)(N[C@@H](C)C(=O)OC(C)C)OCOC(=O)OC(C)C [Compound 2a, (2R,3R,4R,5R)-2-(4-aminopyrrolo[2,1-f][1,2,4]triazin-7-yl)-2-cyano-5-((((R)-(((S)-1-isopropoxy-1-oxopropan-2-yl)amino)(((isopropoxycarbonyl)oxy)methoxy)phosphoryl)oxy)methyl)tetrahydrofuran-3,4-diyl dipropionate]",5 to 10 nM
5,"CCC(=O)O[C@H]1[C@@H](OC(=O)CC)[C@](C#N)(c2ccc3c(N)ncnn23)O[C@@H]1CO[P@@](=O)(N[C@@H](C)C(=O)OC(C)C)OCOC(=O)OC(C)C [Compound 2b, (2R,3R,4R,5R)-2-(4-aminopyrrolo[2,1-f][1,2,4]triazin-7-yl)-2-cyano-5-((((S)-(((S)-1-isopropoxy-1-oxopropan-2-yl)amino)(((isopropoxycarbonyl)oxy)methoxy)phosphoryl)oxy)methyl)tetrahydrofuran-3,4-diyl dipropionate]",≤ 5 nM
6,"CC(C)OC(=O)OCO[P@@](=O)(N[C@@H](C)C(=O)OC(C)C)OC[C@H]1O[C@@](C#N)(c2ccc3c(N)ncnn23)[C@H](OC(=O)C(C)C)[C@@H]1OC(=O)C(C)C [Compound 3a, (2R,3R,4R,5R)-2-(4-aminopyrrolo[2,1-f][1,2,4]triazin-7-yl)-2-cyano-5-((((R)-(((S)-1-isopropoxy-1-oxopropan-2-yl)amino)(((isopropoxycarbonyl)oxy)methoxy)phosphoryl)oxy)methyl)tetrahydrofuran-3,4-diyl bis(2-methylpropionate)]",10 to 50 nM
7,"CC(C)OC(=O)OCO[P@](=O)(N[C@@H](C)C(=O)OC(C)C)OC[C@H]1O[C@@](C#N)(c2ccc3c(N)ncnn23)[C@H](OC(=O)C(C)C)[C@@H]1OC(=O)C(C)C [Compound 3b, (2R,3R,4R,5R)-2-(4-aminopyrrolo[2,1-f][1,2,4]triazin-7-yl)-2-cyano-5-((((S)-(((S)-1-isopropoxy-1-oxopropan-2-yl)amino)(((isopropoxycarbonyl)oxy)methoxy)phosphoryl)oxy)methyl)tetrahydrofuran-3,4-diyl bis(2-methylpropionate)]",< 5 nM
8,"CC(C)OC(=O)OCO[P@@](=O)(N[C@@H](C)C(=O)OC(C)C)OC[C@H]1O[C@@](C#N)(c2ccc3c(N)ncnn23)[C@H](OC(=O)C(C)(C)C)[C@@H]1OC(=O)C(C)(C)C [Compound 4a, (2R,3R,4R,5R)-2-(4-aminopyrrolo[2,1-f][1,2,4]triazin-7-yl)-2-cyano-5-((((R)-(((S)-1-isopropoxy-1-oxopropan-2-yl)amino)(((isopropoxycarbonyl)oxy)methoxy)phosphoryl)oxy)methyl)tetrahydrofuran-3,4-diyl bis(2,2-dimethylpropionate)]",50 to 500 nM
9,"CC(C)OC(=O)OCO[P@](=O)(N[C@@H](C)C(=O)OC(C)C)OC[C@H]1O[C@@](C#N)(c2ccc3c(N)ncnn23)[C@H](OC(=O)C(C)(C)C)[C@@H]1OC(=O)C(C)(C)C [Compound 4b, (2R,3R,4R,5R)-2-(4-aminopyrrolo[2,1-f][1,2,4]triazin-7-yl)-2-cyano-5-((((S)-(((S)-1-isopropoxy-1-oxopropan-2-yl)amino)(((isopropoxycarbonyl)oxy)methoxy)phosphoryl)oxy)methyl)tetrahydrofuran-3,4-diyl bis(2,2-dimethylpropionate)]",50 to 500 nM
10,"CCC(=O)O[C@H]1[C@@H](OC(=O)CC)[C@](C#N)(c2ccc3c(N)ncnn23)O[C@@H]1CO[P@](=O)(N[C@@H](C)C(=O)OCC(CC)CC)OCOC(=O)OC(C)C [Compound 6a, (2R,3R,4R,5R)-2-(4-aminopyrrolo[2,1-f][1,2,4]triazin-7-yl)-2-cyano-5-((((R)-(((S)-1-(2-ethylbutoxy)-1-oxopropan-2-yl)amino)(((isopropoxycarbonyl)oxy)methoxy)phosphoryl)oxy)methyl)tetrahydrofuran-3,4-diyl dipropionate]",5 to 10 nM
11,"CCC(=O)O[C@H]1[C@@H](OC(=O)CC)[C@](C#N)(c2ccc3c(N)ncnn23)O[C@@H]1CO[P@@](=O)(N[C@@H](C)C(=O)OCC(CC)CC)OCOC(=O)OC(C)C [Compound 6b, (2R,3R,4R,5R)-2-(4-aminopyrrolo[2,1-f][1,2,4]triazin-7-yl)-2-cyano-5-((((S)-(((S)-1-(2-ethylbutoxy)-1-oxopropan-2-yl)amino)(((isopropoxycarbonyl)oxy)methoxy)phosphoryl)oxy)methyl)tetrahydrofuran-3,4-diyl dipropionate]",≤ 5 nM
12,"CCC(CC)COC(=O)[C@H](C)N[P@](=O)(OCOC(=O)OC(C)C)OC[C@H]1O[C@@](C#N)(c2ccc3c(N)ncnn23)[C@H](OC(=O)C(C)C)[C@@H]1OC(=O)C(C)C [Compound 7a, (2R,3R,4R,5R)-2-(4-aminopyrrolo[2,1-f][1,2,4]triazin-7-yl)-2-cyano-5-((((R)-(((S)-1-(2-ethylbutoxy)-1-oxopropan-2-yl)amino)(((isopropoxycarbonyl)oxy)methoxy)phosphoryl)oxy)methyl)tetrahydrofuran-3,4-diyl bis(2-methylpropionate)]",10 to 50 nM
13,"CCC(CC)COC(=O)[C@H](C)N[P@@](=O)(OCOC(=O)OC(C)C)OC[C@H]1O[C@@](C#N)(c2ccc3c(N)ncnn23)[C@H](OC(=O)C(C)C)[C@@H]1OC(=O)C(C)C [Compound 7b, (2R,3R,4R,5R)-2-(4-aminopyrrolo[2,1-f][1,2,4]triazin-7-yl)-2-cyano-5-((((S)-(((S)-1-(2-ethylbutoxy)-1-oxopropan-2-yl)amino)(((isopropoxycarbonyl)oxy)methoxy)phosphoryl)oxy)methyl)tetrahydrofuran-3,4-diyl bis(2-methylpropionate)]",10 to 50 nM
14,"CCC(CC)COC(=O)[C@H](C)N[P@](=O)(OCOC(=O)C(C)(C)C)OC[C@H]1O[C@@](C#N)(c2ccc3c(N)ncnn23)[C@H](OC(C)=O)[C@@H]1OC(C)=O [Compound 9a, (2R,3R,4R,5R)-2-(4-aminopyrrolo[2,1-f][1,2,4]triazin-7-yl)-2-cyano-5-((((R)-(((S)-1-(2-ethylbutoxy)-1-oxopropan-2-yl)amino)((pivaloyloxy)methoxy)phosphoryl)oxy)methyl)tetrahydrofuran-3,4-diyl diacetate]",5 to 10 nM
15,"CCC(CC)COC(=O)[C@H](C)N[P@@](=O)(OCOC(=O)C(C)(C)C)OC[C@H]1O[C@@](C#N)(c2ccc3c(N)ncnn23)[C@H](OC(C)=O)[C@@H]1OC(C)=O [Compound 9b, (2R,3R,4R,5R)-2-(4-aminopyrrolo[2,1-f][1,2,4]triazin-7-yl)-2-cyano-5-((((S)-(((S)-1-(2-ethylbutoxy)-1-oxopropan-2-yl)amino)((pivaloyloxy)methoxy)phosphoryl)oxy)methyl)tetrahydrofuran-3,4-diyl diacetate]",≤ 5 nM
16,"CCC(=O)O[C@H]1[C@@H](OC(=O)CC)[C@](C#N)(c2ccc3c(N)ncnn23)O[C@@H]1CO[P@](=O)(N[C@@H](C)C(=O)OCC(CC)CC)OCOC(=O)C(C)(C)C [Compound 10a, (2R,3R,4R,5R)-2-(4-aminopyrrolo[2,1-f][1,2,4]triazin-7-yl)-2-cyano-5-((((R)-(((S)-1-(2-ethylbutoxy)-1-oxopropan-2-yl)amino)((pivaloyloxy)methoxy)phosphoryl)oxy)methyl)tetrahydrofuran-3,4-diyl dipropionate]",10 to 50 nM
17,"CCC(=O)O[C@H]1[C@@H](OC(=O)CC)[C@](C#N)(c2ccc3c(N)ncnn23)O[C@@H]1CO[P@@](=O)(N[C@@H](C)C(=O)OCC(CC)CC)OCOC(=O)C(C)(C)C [Compound 10b, (2R,3R,4R,5R)-2-(4-aminopyrrolo[2,1-f][1,2,4]triazin-7-yl)-2-cyano-5-((((S)-(((S)-1-(2-ethylbutoxy)-1-oxopropan-2-yl)amino)((pivaloyloxy)methoxy)phosphoryl)oxy)methyl)tetrahydrofuran-3,4-diyl dipropionate]",≤ 5 nM
18,"CCC(CC)COC(=O)[C@H](C)N[P@](=O)(OCOC(=O)C(C)(C)C)OC[C@H]1O[C@@](C#N)(c2ccc3c(N)ncnn23)[C@H](OC(=O)C(C)C)[C@@H]1OC(=O)C(C)C [Compound 11a, (2R,3R,4R,5R)-2-(4-aminopyrrolo[2,1-f][1,2,4]triazin-7-yl)-2-cyano-5-((((R)-(((S)-1-(2-ethylbutoxy)-1-oxopropan-2-yl)amino)((pivaloyloxy)methoxy)phosphoryl)oxy)methyl)tetrahydrofuran-3,4-diyl bis(2-methylpropionate)]",10 to 50 nM

# — EP4617278A1, “NUCLEOTIDE ANALOG, AND COMPOSITION AND USE THEREOF” (priority 2022, dated 2024)
